{"source": "patent EP3717657B1", "about": "“A SYSTEM FOR ASSESSING MICROBIAL SUSCEPTIBILITY TO ANTIBIOTIC AGENTS” (Ascilion AB, priority 2017, dated 2019)", "key": {"[1]": {"tested_on": "Enterococcus faecalis (ATCC 29212)", "test": "Antibiotic susceptibility by glucose consumption in culture medium, blood culture bottle inoculum (Example 1);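 on dC/dT: rate calculated between the 60 and 180 min readings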", "type": "cell-based", "details": "for Glucose concentration t=0: 0 minutes; for Glucose concentration t=60: 60 minutes; for Glucose concentration t=120: 120 minutes; for Glucose concentration t=180: 180 minutes; for dC/dT: rate of change in glucose concentration; for Glucose concentration t=240: 240 minutes", "protocol": "(§1) Strains of Escherichia coli (ATCC 25922), Enterococcus faecalis (ATCC 29212) and Staphylococcus aureus (ATCC 29213) were inoculated in blood culture bottles (SVA, Uppsala, Sweden) and cultivated according to the manufacturer's instructions until positive.\n(§2) Medium from each blood culture bottle was diluted 1:100 with cation adjusted Mueller-Hinton broth (SVA, Uppsala, Sweden) supplemented with glucose to a concentration of 1.0 mg/mL.\n(§3) Table 1: Concentrations of antibiotic agents are given in µg/mL.\n(§4) Glucose concentrations were measured at 0, 60, 120, 180, and 240 minutes using a WaveSense Jazz glucometer (AgaMatrix, Inc., Salem, NH, USA) with accompanying test strips.\n(§5) Susceptibility scores corresponding to MIC values were calculated as described above. A 80% threshold was applied, i.e. the lowest concentration of antibiotic that entailed a rate of change in glucose concentration that was equal to or less than 80% of the reference was selected as the Minimal Inhibitory Concentration. The rate of change was calculated between the measurements at 60 and 180 minutes."}, "[2]": {"tested_on": "Escherichia coli (ATCC 25922)", "test": "Antibiotic susceptibility by glucose consumption in culture medium, blood culture bottle inoculum (Example 1)", "type": "cell-based", "details": "for Glucose concentration t=60: 60 minutes; for Glucose concentration t=120: 120 minutes; for Glucose concentration t=180: 180 minutes; for dC/dT: rate of change in glucose concentration", "protocol": "as §1, §2, §3, §4, §5"}}, "data": [{"smiles": "CN[C@H](CC(C)C)C(=O)N[C@H]1C(=O)N[C@@H](CC(N)=O)C(=O)N[C@H]2C(=O)N[C@H]3C(=O)N[C@H](C(=O)N[C@H](C(=O)O)c4cc(O)cc(O)c4-c4cc3ccc4O)[C@H](O)c3ccc(c(Cl)c3)Oc3cc2cc(c3O[C@@H]2O[C@H](CO)[C@@H](O)[C@H](O)[C@H]2O[C@H]2C[C@](C)(N)[C@H](O)[C@H](C)O2)Oc2ccc(cc2Cl)[C@H]1O", "note": "[Vancomycin]", "values": [{"measurement": "F=the rate of change in glucose concentration in relation to the reference", "setting": "[1]; [Ab] 0,5 µg/mL", "value": 82, "unit": "%"}, {"measurement": "Glucose concentration t=0", "setting": "[1]; [Ab] 0,5 µg/mL", "value": 154}, {"measurement": "Glucose concentration t=60", "setting": "[1]; [Ab] 0,5 µg/mL", "value": 155}, {"measurement": "Glucose concentration t=120", "setting": "[1]; [Ab] 0,5 µg/mL", "value": 148}, {"measurement": "Glucose concentration t=180", "setting": "[1]; [Ab] 0,5 µg/mL", "value": 96}, {"measurement": "dC/dT", "setting": "[1]; [Ab] 0,5 µg/mL", "value": 30}, {"measurement": "F=the rate of change in glucose concentration in relation to the reference", "setting": "[1]; [Ab] 0,25 µg/mL", "value": 82, "unit": "%"}, {"measurement": "Glucose concentration t=0", "setting": "[1]; [Ab] 0,25 µg/mL", "value": 143}, {"measurement": "Glucose concentration t=60", "setting": "[1]; [Ab] 0,25 µg/mL", "value": 155}, {"measurement": "Glucose concentration t=120", "setting": "[1]; [Ab] 0,25 µg/mL", "value": 146}, {"measurement": "Glucose concentration t=180", "setting": "[1]; [Ab] 0,25 µg/mL", "value": 96}, {"measurement": "dC/dT", "setting": "[1]; [Ab] 0,25 µg/mL", "value": 30}, {"measurement": "F=the rate of change in glucose concentration in relation to the reference", "setting": "[1]; [Ab] 1 µg/mL", "value": 75, "unit": "%"}, {"measurement": "Glucose concentration t=0", "setting": "[1]; [Ab] 1 µg/mL", "value": 151}, {"measurement": "Glucose concentration t=60", "setting": "[1]; [Ab] 1 µg/mL", "value": 164}, {"measurement": "Glucose concentration t=120", "setting": "[1]; [Ab] 1 µg/mL", "value": 153}, {"measurement": "Glucose concentration t=180", "setting": "[1]; [Ab] 1 µg/mL", "value": 110}, {"measurement": "dC/dT", "setting": "[1]; [Ab] 1 µg/mL", "value": 27}, {"measurement": "F=the rate of change in glucose concentration in relation to the reference", "setting": "[1]; [Ab] 2 µg/mL", "value": 29, "unit": "%"}, {"measurement": "Glucose concentration t=0", "setting": "[1]; [Ab] 2 µg/mL", "value": 147}, {"measurement": "Glucose concentration t=60", "setting": "[1]; [Ab] 2 µg/mL", "value": 160}, {"measurement": "Glucose concentration t=120", "setting": "[1]; [Ab] 2 µg/mL", "value": 152}, {"measurement": "Glucose concentration t=180", "setting": "[1]; [Ab] 2 µg/mL", "value": 139}, {"measurement": "Glucose concentration t=240", "setting": "[1]; [Ab] 2 µg/mL", "value": 94}, {"measurement": "dC/dT", "setting": "[1]; [Ab] 2 µg/mL", "value": 11}, {"measurement": "F=the rate of change in glucose concentration in relation to the reference", "setting": "[1]; [Ab] 4 µg/mL", "value": 19, "unit": "%"}, {"measurement": "Glucose concentration t=0", "setting": "[1]; [Ab] 4 µg/mL", "value": 147}, {"measurement": "Glucose concentration t=60", "setting": "[1]; [Ab] 4 µg/mL", "value": 162}, {"measurement": "Glucose concentration t=120", "setting": "[1]; [Ab] 4 µg/mL", "value": 153}, {"measurement": "Glucose concentration t=180", "setting": "[1]; [Ab] 4 µg/mL", "value": 148}, {"measurement": "Glucose concentration t=240", "setting": "[1]; [Ab] 4 µg/mL", "value": 149}, {"measurement": "dC/dT", "setting": "[1]; [Ab] 4 µg/mL", "value": 7}, {"measurement": "F=the rate of change in glucose concentration in relation to the reference", "setting": "[1]; [Ab] 8 µg/mL", "value": 7, "unit": "%"}, {"measurement": "Glucose concentration t=0", "setting": "[1]; [Ab] 8 µg/mL", "value": 150}, {"measurement": "Glucose concentration t=60", "setting": "[1]; [Ab] 8 µg/mL", "value": 156}, {"measurement": "Glucose concentration t=120", "setting": "[1]; [Ab] 8 µg/mL", "value": 146}, {"measurement": "Glucose concentration t=180", "setting": "[1]; [Ab] 8 µg/mL", "value": 151}, {"measurement": "Glucose concentration t=240", "setting": "[1]; [Ab] 8 µg/mL", "value": 145}, {"measurement": "dC/dT", "setting": "[1]; [Ab] 8 µg/mL", "value": 3}, {"measurement": "F=the rate of change in glucose concentration in relation to the reference", "setting": "[1]; [Ab] 0,125 µg/mL", "value": 83, "unit": "%"}, {"measurement": "Glucose concentration t=0", "setting": "[1]; [Ab] 0,125 µg/mL", "value": 148}, {"measurement": "Glucose concentration t=60", "setting": "[1]; [Ab] 0,125 µg/mL", "value": 154}, {"measurement": "Glucose concentration t=120", "setting": "[1]; [Ab] 0,125 µg/mL", "value": 149}, {"measurement": "Glucose concentration t=180", "setting": "[1]; [Ab] 0,125 µg/mL", "value": 94}, {"measurement": "dC/dT", "setting": "[1]; [Ab] 0,125 µg/mL", "value": 30}, {"measurement": "F=the rate of change in glucose concentration in relation to the reference", "setting": "[1]; [Ab] 0,0625 µg/mL", "value": 93, "unit": "%"}, {"measurement": "Glucose concentration t=0", "setting": "[1]; [Ab] 0,0625 µg/mL", "value": 145}, {"measurement": "Glucose concentration t=60", "setting": "[1]; [Ab] 0,0625 µg/mL", "value": 156}, {"measurement": "Glucose concentration t=120", "setting": "[1]; [Ab] 0,0625 µg/mL", "value": 139}, {"measurement": "Glucose concentration t=180", "setting": "[1]; [Ab] 0,0625 µg/mL", "value": 89}, {"measurement": "dC/dT", "setting": "[1]; [Ab] 0,0625 µg/mL", "value": 34}, {"measurement": "F=the rate of change in glucose concentration in relation to the reference", "setting": "[2]; [Ab] 0,5 µg/mL", "value": 65, "unit": "%"}, {"measurement": "Glucose concentration t=60", "setting": "[2]; [Ab] 0,5 µg/mL", "value": 149}, {"measurement": "Glucose concentration t=120", "setting": "[2]; [Ab] 0,5 µg/mL", "value": 145}, {"measurement": "Glucose concentration t=180", "setting": "[2]; [Ab] 0,5 µg/mL", "value": 68}, {"measurement": "dC/dT", "setting": "[2]; [Ab] 0,5 µg/mL", "value": 41}, {"measurement": "F=the rate of change in glucose concentration in relation to the reference", "setting": "[2]; [Ab] 0,25 µg/mL", "value": 68, "unit": "%"}, {"measurement": "Glucose concentration t=60", "setting": "[2]; [Ab] 0,25 µg/mL", "value": 150}, {"measurement": "Glucose concentration t=120", "setting": "[2]; [Ab] 0,25 µg/mL", "value": 145}, {"measurement": "Glucose concentration t=180", "setting": "[2]; [Ab] 0,25 µg/mL", "value": 66}, {"measurement": "dC/dT", "setting": "[2]; [Ab] 0,25 µg/mL", "value": 42}, {"measurement": "F=the rate of change in glucose concentration in relation to the reference", "setting": "[2]; [Ab] 1 µg/mL", "value": 73, "unit": "%"}, {"measurement": "Glucose concentration t=60", "setting": "[2]; [Ab] 1 µg/mL", "value": 155}, {"measurement": "Glucose concentration t=120", "setting": "[2]; [Ab] 1 µg/mL", "value": 149}, {"measurement": "Glucose concentration t=180", "setting": "[2]; [Ab] 1 µg/mL", "value": 65}, {"measurement": "dC/dT", "setting": "[2]; [Ab] 1 µg/mL", "value": 45}, {"measurement": "F=the rate of change in glucose concentration in relation to the reference", "setting": "[2]; [Ab] 2 µg/mL", "value": 65, "unit": "%"}, {"measurement": "Glucose concentration t=60", "setting": "[2]; [Ab] 2 µg/mL", "value": 147}, {"measurement": "Glucose concentration t=120", "setting": "[2]; [Ab] 2 µg/mL", "value": 151}, {"measurement": "Glucose concentration t=180", "setting": "[2]; [Ab] 2 µg/mL", "value": 67}, {"measurement": "dC/dT", "setting": "[2]; [Ab] 2 µg/mL", "value": 40}, {"measurement": "F=the rate of change in glucose concentration in relation to the reference", "setting": "[2]; [Ab] 4 µg/mL", "value": 69, "unit": "%"}, {"measurement": "Glucose concentration t=60", "setting": "[2]; [Ab] 4 µg/mL", "value": 147}, {"measurement": "Glucose concentration t=120", "setting": "[2]; [Ab] 4 µg/mL", "value": 145}, {"measurement": "Glucose concentration t=180", "setting": "[2]; [Ab] 4 µg/mL", "value": 61}, {"measurement": "dC/dT", "setting": "[2]; [Ab] 4 µg/mL", "value": 43}, {"measurement": "F=the rate of change in glucose concentration in relation to the reference", "setting": "[2]; [Ab] 8 µg/mL", "value": 87, "unit": "%"}, {"measurement": "Glucose concentration t=60", "setting": "[2]; [Ab] 8 µg/mL", "value": 159}, {"measurement": "Glucose concentration t=120", "setting": "[2]; [Ab] 8 µg/mL", "value": 147}, {"measurement": "Glucose concentration t=180", "setting": "[2]; [Ab] 8 µg/mL", "value": 51}, {"measurement": "dC/dT", "setting": "[2]; [Ab] 8 µg/mL", "value": 54}, {"measurement": "F=the rate of change in glucose concentration in relation to the reference", "setting": "[2]; [Ab] 0,125 µg/mL", "value": 71, "unit": "%"}, {"measurement": "Glucose concentration t=60", "setting": "[2]; [Ab] 0,125 µg/mL", "value": 153}, {"measurement": "Glucose concentration t=120", "setting": "[2]; [Ab] 0,125 µg/mL", "value": 154}, {"measurement": "Glucose concentration t=180", "setting": "[2]; [Ab] 0,125 µg/mL", "value": 65}, {"measurement": "dC/dT", "setting": "[2]; [Ab] 0,125 µg/mL", "value": 44}, {"measurement": "F=the rate of change in glucose concentration in relation to the reference", "setting": "[2]; [Ab] 0,0625 µg/mL", "value": 67, "unit": "%"}, {"measurement": "Glucose concentration t=60", "setting": "[2]; [Ab] 0,0625 µg/mL", "value": 148}, {"measurement": "Glucose concentration t=120", "setting": "[2]; [Ab] 0,0625 µg/mL", "value": 144}, {"measurement": "Glucose concentration t=180", "setting": "[2]; [Ab] 0,0625 µg/mL", "value": 65}, {"measurement": "dC/dT", "setting": "[2]; [Ab] 0,0625 µg/mL", "value": 42}]}]}
